Source: patent publication US8952024B2, “Herbicidal pyrimidone derivatives” (E I du Pont de Nemours and Company, priority 2009, dated 2015)

What was measured:
Experiment in all cases: Test B pre-/postemergence plant response
Assay type in all cases: in vivo
kochia (Kochia scoparia) = system: kochia (Kochia scoparia)
Method in brief: (§1)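 Each species received compound formulated in non-phytotoxic solvent with surfactant, either at planting into a loam and sand blend or as a foliar spray once plants reached 2 to 18 cm in peat-based medium. Plants stayed in the greenhouse 13 to 15 days before visual evaluation against controls, scored 0 (no effect) to 100 (complete control).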

[1] = system: johnsongrass (Sorghum halepense)
Method in brief: as §1

[2] = system: blackgrass (Alopecurus myosuroides)
Method in brief: as §1

corn (Zea mays) = system: corn (Zea mays)
Method in brief: as §1

[3] = system: Italian ryegrass (Lolium multiflorum)
Method in brief: as §1

soybean (Glycine max) = system: soybean (Glycine max)
Method in brief: as §1

[4] = system: giant foxtail (Setaria faberii)
Method in brief: as §1

[5] = system: pigweed (Amaranthus retroflexus)
Method in brief: as §1

[6] = system: downy bromegrass (Bromus tectorum)
Method in brief: as §1

[7] = system: woolly cupgrass (Eriochloa villosa)
Method in brief: as §1

[8] = system: ragweed (common ragweed, Ambrosia elatior)
Method in brief: as §1

[9] = system: velvetleaf (Abutilon theophrasti)
Method in brief: as §1

[10] = system: Surinam grass (Brachiaria decumbens)
Method in brief: as §1

[11] = Postemergence, 31 g ai/ha, 0 to 100 scale (0 no effect, 100 complete control)
[12] = Postemergence, 62 g ai/ha, scale 0 to 100 (0 no effect, 100 complete control)
[13] = Postemergence, 125 g ai/ha, scale 0 (no effect) to 100 (complete control), 13 to 15 days
[14] = Postemergence, 250 g ai/ha, scale 0 to 100 (0 no effect, 100 complete control), 13 to 15 days
[15] = 31 g ai/ha, postemergence, scale 0 to 100, 0 is no effect, 100 is complete control
[16] = Postemergence, 62 g ai/ha, scale 0 (no effect) to 100 (complete control), 13 to 15 days
[17] = Postemergence, 125 g ai/ha, visual rating after 13 to 15 days, scale 0 (no effect) to 100 (complete control)
[18] = Postemergence, 250 g ai/ha, scale 0 to 100 (0 no effect, 100 complete control)
[19] = 250 g ai/ha, Preemergence, 0 to 100 scale
[20] = Preemergence, 31 g ai/ha, scale 0 to 100 (0 no effect, 100 complete control)
[21] = Preemergence, 62 g ai/ha, scale 0 to 100 (0 no effect, 100 complete control)
[22] = Preemergence, 125 g ai/ha, scale 0 to 100, 0 no effect, 100 complete control

CCn1c(-c2ccccc2)ncc(C(=O)C2=C(O)C3CCC(C3)C2=O)c1=O (stereo not shown) [Compound 239]
Plant response rating, Kochia (kochia (Kochia scoparia); [11]): 90 | Plant response rating, Kochia (kochia (Kochia scoparia); [12]): 98 | Plant response rating, Kochia (kochia (Kochia scoparia); [13]): 98 | Plant response rating, Kochia (kochia (Kochia scoparia); [14]): 98 | Plant response rating, Johnsongrass [1, 11]: 0 | Plant response rating, Johnsongrass [1, 12]: 20 | Plant response rating, Johnsongrass [1, 13]: 60 | Plant response rating, Blackgrass [2, 11]: 5 | Plant response rating, Blackgrass [2, 12]: 5 | Plant response rating, Blackgrass [2, 13]: 30 | Plant response rating, Blackgrass [2, 14]: 50 | Plant response rating, Corn (corn (Zea mays); [11]): 5 | Plant response rating, Corn (corn (Zea mays); [12]): 45 | Plant response rating, Corn (corn (Zea mays); [13]): 45 | Plant response rating, Corn (corn (Zea mays); [14]): 75 | Plant response rating, Ryegrass, Italian [3, 11]: 0 | Plant response rating, Ryegrass, Italian [3, 12]: 0 | Plant response rating, Ryegrass, Italian [3, 13]: 0 | Plant response rating, Ryegrass, Italian [3, 14]: 0 | Plant response rating, Soybean (soybean (Glycine max); [11]): 70 | Plant response rating, Soybean (soybean (Glycine max); [12]): 95 | Plant response rating, Soybean (soybean (Glycine max); [13]): 98 | Plant response rating, Soybean (soybean (Glycine max); [14]): 98 | Plant response rating, Foxtail, Giant [4, 11]: 75 | Plant response rating, Foxtail, Giant [4, 12]: 85 | Plant response rating, Foxtail, Giant [4, 13]: 90 | Plant response rating, Foxtail, Giant [4, 14]: 98 | Plant response rating, Pigweed [5, 11]: 95 | Plant response rating, Pigweed [5, 12]: 98 | Plant response rating, Pigweed [5, 13]: 98 | Plant response rating, Pigweed [5, 14]: 100 | Plant response rating, Bromegrass, Downy [6, 11]: 0 | Plant response rating, Bromegrass, Downy [6, 12]: 5 | Plant response rating, Bromegrass, Downy [6, 13]: 5 | Plant response rating, Bromegrass, Downy [6, 14]: 10 | Plant response rating, Cupgrass, Woolly [7, 11]: 75 | Plant response rating, Cupgrass, Woolly [7, 12]: 95 | Plant response rating, Cupgrass, Woolly [7, 13]: 95 | Plant response rating, Cupgrass, Woolly [7, 14]: 95 | Plant response rating, Ragweed [8, 11]: 95 | Plant response rating, Ragweed [8, 12]: 98 | Plant response rating, Ragweed [8, 13]: 100 | Plant response rating, Ragweed [8, 14]: 100 | Plant response rating, Velvetleaf [9, 11]: 100 | Plant response rating, Velvetleaf [9, 12]: 100 | Plant response rating, Velvetleaf [9, 13]: 100 | Plant response rating, Velvetleaf [9, 14]: 100 | Plant response rating, Surinam Grass [10, 11]: 25 | Plant response rating, Surinam Grass [10, 12]: 35 | Plant response rating, Surinam Grass [10, 13]: 45 | Plant response rating, Surinam Grass [10, 14]: 75

Cn1c(-c2ccccc2)ncc(C(=O)C2=C(O)CCCC2=O)c1=O [Compound 55]
Plant response rating, Kochia (kochia (Kochia scoparia); [15]): 20 | Plant response rating, Kochia (kochia (Kochia scoparia); [16]): 65 | Plant response rating, Kochia (kochia (Kochia scoparia); [17]): 75 | Plant response rating, Kochia (kochia (Kochia scoparia); [18]): 85 | Plant response rating, Johnsongrass [1, 15]: 0 | Plant response rating, Johnsongrass [1, 19]: 0 | Plant response rating, Johnsongrass [1, 16]: 0 | Plant response rating, Johnsongrass [1, 17]: 10 | Plant response rating, Johnsongrass [1, 18]: 20 | Plant response rating, Johnsongrass [1, 20]: 0 | Plant response rating, Johnsongrass [1, 21]: 0 | Plant response rating, Johnsongrass [1, 22]: 0 | Plant response rating, Blackgrass [2, 15]: 0 | Plant response rating, Blackgrass [2, 19]: 30 | Plant response rating, Blackgrass [2, 16]: 0 | Plant response rating, Blackgrass [2, 17]: 5 | Plant response rating, Blackgrass [2, 18]: 10 | Plant response rating, Blackgrass [2, 20]: 0 | Plant response rating, Blackgrass [2, 21]: 0 | Plant response rating, Blackgrass [2, 22]: 0 | Plant response rating, Corn (corn (Zea mays); [15]): 0 | Plant response rating, Corn (corn (Zea mays); [19]): 0 | Plant response rating, Corn (corn (Zea mays); [16]): 5 | Plant response rating, Corn (corn (Zea mays); [17]): 5 | Plant response rating, Corn (corn (Zea mays); [18]): 10 | Plant response rating, Corn (corn (Zea mays); [20]): 0 | Plant response rating, Corn (corn (Zea mays); [21]): 0 | Plant response rating, Corn (corn (Zea mays); [22]): 0 | Plant response rating, Ryegrass, Italian [3, 15]: 0 | Plant response rating, Ryegrass, Italian [3, 16]: 0 | Plant response rating, Ryegrass, Italian [3, 17]: 0 | Plant response rating, Ryegrass, Italian [3, 18]: 0 | Plant response rating, Ryegrass, Italian [3, 20]: 0 | Plant response rating, Ryegrass, Italian [3, 21]: 0 | Plant response rating, Ryegrass, Italian [3, 22]: 0 | Plant response rating, Soybean (soybean (Glycine max); [15]): 25 | Plant response rating, Soybean (soybean (Glycine max); [16]): 60 | Plant response rating, Soybean (soybean (Glycine max); [17]): 60 | Plant response rating, Soybean (soybean (Glycine max); [18]): 75 | Plant response rating, Soybean (soybean (Glycine max); [20]): 0 | Plant response rating, Soybean (soybean (Glycine max); [21]): 0 | Plant response rating, Soybean (soybean (Glycine max); [22]): 15 | Plant response rating, Foxtail, Giant [4, 15]: 25 | Plant response rating, Foxtail, Giant [4, 19]: 10 | Plant response rating, Foxtail, Giant [4, 16]: 30 | Plant response rating, Foxtail, Giant [4, 17]: 55 | Plant response rating, Foxtail, Giant [4, 18]: 75 | Plant response rating, Foxtail, Giant [4, 20]: 0 | Plant response rating, Foxtail, Giant [4, 21]: 0 | Plant response rating, Foxtail, Giant [4, 22]: 0 | Plant response rating, Pigweed [5, 15]: 80 | Plant response rating, Pigweed [5, 16]: 85 | Plant response rating, Pigweed [5, 17]: 90 | Plant response rating, Pigweed [5, 18]: 95 | Plant response rating, Pigweed [5, 20]: 45 | Plant response rating, Pigweed [5, 21]: 95 | Plant response rating, Pigweed [5, 22]: 98 | Plant response rating, Bromegrass, Downy [6, 15]: 0 | Plant response rating, Bromegrass, Downy [6, 19]: 0 | Plant response rating, Bromegrass, Downy [6, 16]: 0 | Plant response rating, Bromegrass, Downy [6, 17]: 0 | Plant response rating, Bromegrass, Downy [6, 18]: 0 | Plant response rating, Bromegrass, Downy [6, 20]: 0 | Plant response rating, Bromegrass, Downy [6, 21]: 0 | Plant response rating, Bromegrass, Downy [6, 22]: 0 | Plant response rating, Cupgrass, Woolly [7, 15]: 10 | Plant response rating, Cupgrass, Woolly [7, 19]: 55 | Plant response rating, Cupgrass, Woolly [7, 16]: 10 | Plant response rating, Cupgrass, Woolly [7, 17]: 15 | Plant response rating, Cupgrass, Woolly [7, 18]: 20 | Plant response rating, Cupgrass, Woolly [7, 20]: 0 | Plant response rating, Cupgrass, Woolly [7, 21]: 0 | Plant response rating, Cupgrass, Woolly [7, 22]: 0 | Plant response rating, Ragweed [8, 15]: 70 | Plant response rating, Ragweed [8, 16]: 80 | Plant response rating, Ragweed [8, 17]: 95 | Plant response rating, Ragweed [8, 18]: 98 | Plant response rating, Ragweed [8, 20]: 55 | Plant response rating, Ragweed [8, 21]: 65 | Plant response rating, Ragweed [8, 22]: 85 | Plant response rating, Velvetleaf [9, 15]: 90 | Plant response rating, Velvetleaf [9, 16]: 98 | Plant response rating, Velvetleaf [9, 17]: 98 | Plant response rating, Velvetleaf [9, 18]: 100 | Plant response rating, Velvetleaf [9, 20]: 75 | Plant response rating, Velvetleaf [9, 21]: 98 | Plant response rating, Velvetleaf [9, 22]: 100 | Plant response rating, Surinam Grass [10, 15]: 10 | Plant response rating, Surinam Grass [10, 16]: 15 | Plant response rating, Surinam Grass [10, 17]: 45 | Plant response rating, Surinam Grass [10, 18]: 60 | Plant response rating, Surinam Grass [10, 20]: 0 | Plant response rating, Surinam Grass [10, 21]: 0 | Plant response rating, Surinam Grass [10, 22]: 0
